Entries after “also recorded” stand apart in the source; their conditions may differ. Ends that are not written are not given here.
Experiments:
[1] = molecular target: T1, NRP1-PlexinA1 interaction (Mus musculus, UniProt P70206); assay: Proximity ligation assay of Neuropilin-1/Plexin-A1 receptor dimers in Oli-neu cells; assay type: cell-based; settings: for Normalized interactions Nrp1-PlexinA1/cell: Oli-neu cells treated with peptides at 10^−7 M, vehicle 100; for reduction of the number of NRP1/PlexinA1 interactions: 10^−7 M
T1 construct: endogenous in cells; host or cells: Oli-neu cells
Description: After fixation with 1% PFA for 10 min, slices were permeabilized with PBS/0.1% Triton X-100. Primary antibodies (NRP1 from Evitria, 1:500; and Plexin-A1 from Abcam, ab23391, 1:200) were incubated overnight at 4° C. in PBS. The proximity ligation assay allowing to visualize receptor dimers (Neuropilin-1/Plexin-A1) was then performed according to the manufacturer's recommendations with the “detection orange” kit (Sigma). Quantification of the interactions (fluorescent dots at the cell surface) was performed using ImageJ software.

[2] = tested on: oligodendrocyte cell line Oli-neu; assay: Cell migration assay (Transwell CIM-Plate, xCELLigence), rescue of Sema3A negative effect; assay type: cell-based; settings: 20 ng/ml Sema3A
Description: Cells were pre-incubated 1 h with vehicle alone or MTP. The 1×10^5 cells were seeded in the upper chamber with 150 μl of medium. The bottom well contained 160 μl of medium supplemented with 2% fetal bovine serum for chemoattraction and 20 ng/ml Sema3A (Recombinant Mouse Semaphorin 3A Fc Chimera Protein Carrier Free ref: 5926-S3/CF; RnD Systems) for repulsion. Analysis was performed after 8 h of migration according to the manufacturer's instructions. Data are expressed as a percentage of positive control migration, i.e. the migration of Oli-neu with 2% serum and without Sema3A.

[3] = MTP solubility in PBS and PBS/LDS; assay type: physicochemical
Description: The solubility of the MTPs was tested either in phosphate buffered saline (PBS) or in a mixture of PBS and lithium dodecyl sulfate (LDS).

[4] = tested on: cuprizone-induced demyelination; settings: mouse, in vivo
Description: It was next assessed whether […] can induce remyelination of the CNS and motor function recovery following demyelination induced by cuprizone, a copper-chelating agent, in a mouse model. Oral intoxication with cuprizone induces oligodendrocyte apoptosis within a few days, which is closely followed by the activation of the innate immune cells in the brain, i.e., astrocytes and microglia, finally leading to demyelination of distinct white and grey matter brain areas. […] (10 μg/kg) for 6 consecutive days (n=10) • (e) 5 weeks cuprizone, followed by treatment with […] (100 μg/kg) for 6 consecutive days (n=10) • (f) 5 weeks cuprizone, followed by treatment with vehicle for 11 consecutive days (n=10) • (g) 5 weeks cuprizone, followed by treatment with […] (10 μg/kg) for 11 consecutive days (n=10) • (h) 5 weeks cuprizone, followed by treatment with […] (100 μg/kg) for 11 consecutive days (n=10) Acute demyelination was induced by intoxicating for five consecutive weeks 8-week-old (19-21 g) male mice a diet containing 0.25% cuprizone [bis(cyclohexanone)oxaldihydrazone; Sigma-Aldrich Inc., St Louis, MO, USA] mixed into a ground standard rodent chow. […]

[5] = molecular target: Plexin-A1 (on Oli-neu cells) (UniProt P70206); assay: proximity ligation assay on Oli-neu cells, peptide at 10^-7 M for 1 h; NRP1/Plexin-A1 dimers counted
[6] = molecular target: Plexin-A1 (on Oli-neu cells) (UniProt P70206); assay: proximity ligation assay on Oli-neu cells, dose response; inhibition of NRP1/Plexin-A1 interactions
[7] = Solubilization vehicle PBS 100%

Row | Molecule | Normalized interactions Nrp1-PlexinA1/cell [1] | Measured concentration [3, 7] | Normalized interactions Nrp1-PlexinA1/cell (normalized to vehicle = 100) [5] | also measured
1 | TLPAIVSIGGGVVLLLEVIVEVAYEEEEE [MIMMING] | 49.4 |  |  | reduction of the number of NRP1/PlexinA1 interactions ([1]; Oli-neu cells): −51%; IC50 ([1]; Oli-neu cells, dose response, read-out: IC50, number of NRP1/PlexinA1 interactions): 17 nM; rescue of Sema3A negative effect on migration ([2]; 8 h of migration): able to counteract; also recorded: rescue migration
2 | TLPAIVGIGGGGGLLLLVIVAVLIAYKRK [MTP-PlexA1, reference compound] |  | 0 µM |  | Measured concentration ([3]; Solubilization vehicle PBS 100% LDS 72 mM): 360 µM
3 | TLPAIGVITLVGLGVLELVAEGVYEEEEE [HODR, reference compound] |  | 189 µM |  | 
4 | TLPAITGLVGGVGLLLEVIVEVAYEEEEE [GUNGNIR] | 40.4 | 248 µM |  | reduction of the number of NRP1/PlexinA1 interactions ([1]; Oli-neu cells): −60%; body weight [4]: no differences were observed; percentage loss of body weight relative to vehicle-treated groups [4]: significantly less pronounced; IC50 ([2]; n=3): 1.2 nM
5 | TLPAIVGIGGGGGELLLVIVEVLIYEEEEE [RATI] |  | 224 µM |  | 
6 | TLPAIVGIGGGGGLLLEVIVEVLIAYEEEEE [DRAUPNIR] |  | 260 µM |  | 
7 | TLPVIGVIVLVGSAVLELIAEGVYEEEEE [SURTR, reference compound] | 96.8 |  |  | 
8 | TLPVIGVIVLVGSAVLELIAEGVYEEEEE [SURTR] |  |  | 96.8 | 
9 | TLPAIVSIGGGVVLLLEVIVEVAYEEEEE [MIMMING] |  |  | 49.4 | 
10 | TLPAITGLVGGVGLLLEVIVEVAYEEEEE [GUNGNIR] |  |  | 40.4 | IC50 [6]: 0.074 nM

Reference: US20250320253A1, “TRANSMEMBRANE PEPTIDIC ANTAGONISTS OF PLEXIN-A1 AND THEIR THERAPEUTIC USES” (UNIVERSITE DE STRASBOURG, priority 2021, published 2025)
